Literature values, collected in patent US20250195458A1, “SHORT-CHAIN FATTY ACIDS FOR CANCER TREATMENT” (priority 2022, published 2025).

Assays:
human lung cancer cells = details: literature summary of Example 2
pancreatic cancer = details: literature summary of Example 2
[1] = system: pancreatic carcinoma cell lines (Capan-2, AsPC-1, and MiaPaCa-2); details: Capan-2, AsPC-1, MiaPaCa-2; literature summary of Example 2
colorectal cancer cells = details: literature summary of Example 2

SMILES: CCCC(=O)[O-].[Na+] [Sodium butyrate]
- Expression levels of P-gp and STAT3 in human lung cancer cells (human lung cancer cells): increases the expression levels of P-gp and STATS3
- Invasion of pancreatic cancer (pancreatic cancer): hinders the invasion of pancreatic cancer

SMILES: CC(=O)O[C@]1(C(C)=O)CC[C@H]2[C@@H]3C[C@H](C)C4=CC(=O)CC[C@]4(C)[C@H]3CC[C@@]21C [Medroxyprogesterone acetate]
- Proliferation of pancreatic carcinoma cell lines [1]: blocks the proliferation

SMILES: CCC(=O)O [Propionate]
- Apoptosis and cell cycle arrest, lung cancer (human lung cancer cells): triggering cell apoptosis and cell cycle arrest
- Anti-tumor effect in colorectal cancer (apoptosis) (colorectal cancer cells): induces apoptosis in colon cancer

SMILES: CC(=O)O [Acetate]
- Anti-tumor effect in colorectal cancer (apoptosis) (colorectal cancer cells): triggers apoptosis in colorectal cancer cells
